According to patent US20080032953A1, “Method For Inhibiting Prebiotic Effect Of Food Proteins” (Royal Canin SA,, priority 2004, published 2008):

Assays:
[1] = tested on: anaerobic microflora; assay: Growth of cat oral bacterial microflora in artificial saliva with protein, with or without phosphate: anaerobic count; assay type: cell-based
Method: (§1) For all the experiments, the bacterial microflora of the oral cavity was removed, kept in a conservation medium, and then cultured in artificial saliva according to the following protocol:
(§2) Two male cats of “European” race, weighing approximately 5.50 kg, were anesthetized with 0.3 ml of a solution of medetomidine at 0.085 g/100 ml (Domitor, ND) and 0.26 ml of a solution of ketamine at […] (Imalgene 1000, ND).
(§3) In each animal thus immobilized, the saliva was sterilely suctioned with a pipette and the base of the teeth, the gums and the gum pockets were scraped with the back of a sterile scalpel.
(§4) All the samples were transferred and well-diluted in 100 ml of a sterile conservation medium (thiocolate resazurin medium from Biokar supplemented with 25% of glycerol). The conservation medium containing the samples was transferred into tubes with microbeads (Cryobilles, ND from AES). These tubes were then incubated for 6 hours in an incubator at 37° C., in a jar under CO2, before being frozen for subsequent use.
(§5) When subsequently used, each tube is thawed at ambient temperature and then incubated for 12 hours at 37° C., in a jar under CO2. The aerobic and anaerobic bacteria are counted according to the methods described hereinafter. The content of each tube is subsequently diluted with the sterile conservation medium so as to have an inoculum of 5000 (3.70 log10) revivable microorganisms in 0.2 ml.
(§6) The anaerobic microflora is cultured and then counted on a Schaedler medium (Biokar) supplemented with 5% of sterile defibrinated sheep blood, incubated at 37° C., in a jar under CO2, for 48 hours.
(§7) The basic artificial saliva is prepared according to table 31 on page 244 of the manual Biological Handbooks—Metabolism, compiled and edited by Philip L. Altman and Dorothy S. Dittmer, published by Federation of American Societies for Experimental Biology, 1968.
(§8) This basic saliva is supplemented with L-cysteine at a rate of 0.5 g/liter in order to lower its redox potential so as to be able to grow therein both the aerobic bacterial microflora and the anaerobic bacterial microflora. The whole will subsequently be referred to as “artificial saliva”.
(§9) The artificial saliva is dispensed into test tubes at a rate of 20 ml per tube. Each tube is supplemented or not supplemented with the protein, in the presence or absence of the phosphate to be tested. Each treatment is composed of two tubes.
(§10) The whole is autoclaved at 110° C. for 15 minutes.
(§11) Each tube is subsequently inoculated with 0.2 ml of inoculum described above. The whole is incubated in an incubator at 37° C., with shaking.
(§12) After 24, 48 or 72 hours of incubation, the aerobic flora and the anaerobic flora are counted according to the methods described above.
(§13) The result of each treatment is the mean of the counts of two test tubes, expressed as log10 of C.F.U. (Colony Forming Units) per ml of artificial saliva.

[2] = tested on: aerobic microflora; assay: Growth of canine oral flora in artificial saliva with soya hydrolysate, with or without tripolyphosphate: aerobic count; assay type: cell-based, dog; conditions: for Aerobic microflora CFU/ml, 24 hours / Aerobic microflora CFU/ml, 48 hours: Experiment 6, canine flora
Method: as §1, §5
(§14) The aerobic microflora is cultured and then counted on a trypticase soy medium (Biokar) incubated at 37° C. for 48 hours.
as §7, §8, §9, §10, §11, §12, §13
(§15) In this assay, the inhibitory effect of sodium tripolyphosphate incorporated at 0, 0.5, 1, 1.5 and 2%, on the prebiotic effect of a dehydrated soya hydrolysate (Nurish 1500 IP, ND from Solea Company, having a titer of 83% of total nitrogenous matter) incorporated into the artificial saliva at 0.5 and at 1%, was tested.
(§16) In this assay, oral microflora taken from a dog were used.

[3] = tested on: aerobic microflora; assay: Growth of cat oral bacterial microflora in artificial saliva with protein, with or without phosphate: aerobic count; assay type: cell-based
Method: as §1, §2, §3, §4, §5, §14, §7, §8, §9, §10, §11, §12, §13

[4] = tested on: anaerobic microflora; assay: Growth of canine oral flora in artificial saliva with soya hydrolysate, with or without tripolyphosphate: anaerobic count; assay type: cell-based, dog; conditions: for Anaerobic microflora CFU/ml, 24 hours / Anaerobic microflora CFU/ml, 48 hours: Experiment 6, canine flora
Method: as §1, §5, §6, §7, §8, §9, §10, §11, §12, §13, §15, §16

[5] = Experiment 4, MP9007 1%, tripolyphosphate 0.5%
[6] = Experiment 4, MP9007 1%, tripolyphosphate 1%
[7] = Experiment 4, MP9007 1%, tripolyphosphate 1.5%
[8] = Experiment 4, MP9007 1%, tripolyphosphate 2%
[9] = Experiment 4, sodium tripolyphosphate 0.5-2%, MP9007 1%
[10] = Experiment 5, regardless of the amount incorporated (0.5-2%), soya hydrolysate 1%
[11] = Experiment 5, soya hydrolysate 1%, tripolyphosphate 0.5%
[12] = Experiment 5, soya hydrolysate 1%, tripolyphosphate 1%
[13] = Experiment 5, soya hydrolysate 1%, tripolyphosphate 1.5%
[14] = Experiment 5, soya hydrolysate 1%, tripolyphosphate 2%
[15] = tripolyphosphate 0.5%, soya hydrolysate 0.5%
[16] = tripolyphosphate 0.5%, soya hydrolysate 1%
[17] = tripolyphosphate 1%, soya hydrolysate 0.5%
[18] = tripolyphosphate 1%, soya hydrolysate 1%
[19] = tripolyphosphate 1.5%, soya hydrolysate 0.5%
[20] = tripolyphosphate 1.5%, soya hydrolysate 1%
[21] = tripolyphosphate 2%, soya hydrolysate 0.5%
[22] = tripolyphosphate 2%, soya hydrolysate 1%
[23] = Experiment 6, soya hydrolysate 0.5 and 1%
[24] = Experiment 6, tripolyphosphate incorporation rates greater than or equal to 1%
[25] = Experiment 2, MP9007 1%, trisodium pyrophosphate 5%
[26] = Experiment 2, MP9007 1%, trisodium pyrophosphate 10%
[27] = Experiment 2, trisodium phosphate at 5%, MP9007 1%, from 24 hours of incubation
[28] = Experiment 2, trisodium phosphate incorporated at 10%, MP9007 1%
[29] = Experiment 3, MP9007 1%, trisodium pyrophosphate 0.5%

O=P(O)(O)OP(=O)(O)OP(=O)(O)O [sodium tripolyphosphate]
Anaerobic microflora CFU/ml, 24 hours [1, 5]: 5.41 log10 CFU/ml
Anaerobic microflora CFU/ml, 48 hours [1, 5]: 7.04 log10 CFU/ml
Anaerobic microflora CFU/ml, 24 hours [1, 6]: <4.00 log10 CFU/ml
Anaerobic microflora CFU/ml, 48 hours [1, 6]: 6.36 log10 CFU/ml
Anaerobic microflora CFU/ml, 24 hours [1, 7]: 4.98 log10 CFU/ml
Anaerobic microflora CFU/ml, 48 hours [1, 7]: 6.82 log10 CFU/ml
Anaerobic microflora CFU/ml, 24 hours [1, 8]: <4.00 log10 CFU/ml
Anaerobic microflora CFU/ml, 48 hours [1, 8]: <4.00 log10 CFU/ml
Inhibition of the prebiotic effect of the MP9007 protein, anaerobic microflora (in words) [1, 9]: significantly inhibits
Inhibition of the prebiotic effect of soya hydrolysate, anaerobic microflora (in words) [1, 10]: virtually inhibits the entire prebiotic effect
Anaerobic microflora CFU/ml, 24 hours [1, 11]: <4.00 log10 CFU/ml
Anaerobic microflora CFU/ml, 48 hours [1, 11]: <4.00 log10 CFU/ml
Anaerobic microflora CFU/ml, 24 hours [1, 12]: <4.00 log10 CFU/ml
Anaerobic microflora CFU/ml, 48 hours [1, 12]: <4.00 log10 CFU/ml
Anaerobic microflora CFU/ml, 24 hours [1, 13]: <4.00 log10 CFU/ml
Anaerobic microflora CFU/ml, 48 hours [1, 13]: <4.00 log10 CFU/ml
Anaerobic microflora CFU/ml, 24 hours [1, 14]: <4.00 log10 CFU/ml
Anaerobic microflora CFU/ml, 48 hours [1, 14]: <4.00 log10 CFU/ml
Aerobic microflora CFU/ml, 24 hours [2, 15]: 7.10 log10 CFU/ml
Aerobic microflora CFU/ml, 48 hours [2, 15]: 7.54 log10 CFU/ml
Aerobic microflora CFU/ml, 24 hours [2, 16]: 7.50 log10 CFU/ml
Aerobic microflora CFU/ml, 48 hours [2, 16]: 7.51 log10 CFU/ml
Aerobic microflora CFU/ml, 24 hours [2, 17]: <3 log10 CFU/ml
Aerobic microflora CFU/ml, 48 hours [2, 17]: <3 log10 CFU/ml
Aerobic microflora CFU/ml, 24 hours [2, 18]: <3 log10 CFU/ml
Aerobic microflora CFU/ml, 48 hours [2, 18]: 3.17 log10 CFU/ml
Aerobic microflora CFU/ml, 24 hours [2, 19]: <3 log10 CFU/ml
Aerobic microflora CFU/ml, 48 hours [2, 19]: <3 log10 CFU/ml
Aerobic microflora CFU/ml, 24 hours [2, 20]: <3 log10 CFU/ml
Aerobic microflora CFU/ml, 48 hours [2, 20]: <3 log10 CFU/ml
Aerobic microflora CFU/ml, 24 hours [2, 21]: <3 log10 CFU/ml
Aerobic microflora CFU/ml, 48 hours [2, 21]: <3 log10 CFU/ml
Aerobic microflora CFU/ml, 24 hours [2, 22]: <3 log10 CFU/ml
Aerobic microflora CFU/ml, 48 hours [2, 22]: <3 log10 CFU/ml
Inhibition of the prebiotic effect of soya hydrolysate, canine aerobic oral microflora (in words) [2, 23]: inhibits the prebiotic effect
Inhibitory effect, canine aerobic oral microflora (in words) [2, 24]: particularly substantial
Aerobic microflora CFU/ml, 24 hours [3, 5]: 5.50 log10 CFU/ml
Aerobic microflora CFU/ml, 48 hours [3, 5]: 6.90 log10 CFU/ml
Aerobic microflora CFU/ml, 24 hours [3, 6]: 4.81 log10 CFU/ml
Aerobic microflora CFU/ml, 48 hours [3, 6]: 6.49 log10 CFU/ml
Aerobic microflora CFU/ml, 24 hours [3, 7]: 4.84 log10 CFU/ml
Aerobic microflora CFU/ml, 48 hours [3, 7]: 6.83 log10 CFU/ml
Aerobic microflora CFU/ml, 24 hours [3, 8]: <4.00 log10 CFU/ml
Aerobic microflora CFU/ml, 48 hours [3, 8]: <4.00 log10 CFU/ml
Inhibition of the prebiotic effect of the MP9007 protein, aerobic microflora (in words) [3, 9]: significantly inhibits
Inhibition of the prebiotic effect of soya hydrolysate, aerobic microflora (in words) [3, 10]: virtually inhibits the entire prebiotic effect
Aerobic microflora CFU/ml, 24 hours [3, 11]: <4.00 log10 CFU/ml
Aerobic microflora CFU/ml, 48 hours [3, 11]: <4.00 log10 CFU/ml
Aerobic microflora CFU/ml, 24 hours [3, 12]: <4.00 log10 CFU/ml
Aerobic microflora CFU/ml, 48 hours [3, 12]: <4.00 log10 CFU/ml
Aerobic microflora CFU/ml, 24 hours [3, 13]: <4.00 log10 CFU/ml
Aerobic microflora CFU/ml, 48 hours [3, 13]: <4.00 log10 CFU/ml
Aerobic microflora CFU/ml, 24 hours [3, 14]: <4.00 log10 CFU/ml
Aerobic microflora CFU/ml, 48 hours [3, 14]: <4.00 log10 CFU/ml
Anaerobic microflora CFU/ml, 24 hours [4, 15]: 1.92 log10 CFU/ml
Anaerobic microflora CFU/ml, 48 hours [4, 15]: 5.80 log10 CFU/ml
Anaerobic microflora CFU/ml, 24 hours [4, 16]: 6.30 log10 CFU/ml
Anaerobic microflora CFU/ml, 48 hours [4, 16]: 6.24 log10 CFU/ml
Anaerobic microflora CFU/ml, 24 hours [4, 17]: <3 log10 CFU/ml
Anaerobic microflora CFU/ml, 48 hours [4, 17]: <3 log10 CFU/ml
Anaerobic microflora CFU/ml, 24 hours [4, 18]: <3 log10 CFU/ml
Anaerobic microflora CFU/ml, 48 hours [4, 18]: 3.30 log10 CFU/ml
Anaerobic microflora CFU/ml, 24 hours [4, 19]: <3 log10 CFU/ml
Anaerobic microflora CFU/ml, 48 hours [4, 19]: <3 log10 CFU/ml
Anaerobic microflora CFU/ml, 24 hours [4, 20]: <3 log10 CFU/ml
Anaerobic microflora CFU/ml, 48 hours [4, 20]: <3 log10 CFU/ml
Anaerobic microflora CFU/ml, 24 hours [4, 21]: <3 log10 CFU/ml
Anaerobic microflora CFU/ml, 48 hours [4, 21]: <3 log10 CFU/ml
Anaerobic microflora CFU/ml, 24 hours [4, 22]: <3 log10 CFU/ml
Anaerobic microflora CFU/ml, 48 hours [4, 22]: <3 log10 CFU/ml
Inhibition of the prebiotic effect of soya hydrolysate, canine anaerobic oral microflora (in words) [4, 23]: inhibits the prebiotic effect
Inhibitory effect, canine anaerobic oral microflora (in words) [4, 24]: particularly substantial

O=P([O-])([O-])OP(=O)([O-])O.[Na+].[Na+].[Na+] [Trisodium pyrophosphate, trisodium pyrophosphate]
Anaerobic microflora CFU/ml, 24 hours [1, 25]: 6.88 log10 CFU/ml
Anaerobic microflora CFU/ml, 48 hours [1, 25]: 7.46 log10 CFU/ml
Anaerobic microflora CFU/ml, 72 hours [1, 25]: 6.26 log10 CFU/ml
Anaerobic microflora CFU/ml, 24 hours [1, 26]: <4.00 log10 CFU/ml
Anaerobic microflora CFU/ml, 48 hours [1, 26]: <4.00 log10 CFU/ml
Anaerobic microflora CFU/ml, 72 hours [1, 26]: <4.00 log10 CFU/ml
Inhibitory effect on the prebiotic effect of MP9007, anaerobic microflora (in words) [1, 27]: very substantial
Inhibition of the prebiotic effect of the MP9007 protein, anaerobic microflora (in words) [1, 28]: completely inhibited
Anaerobic microflora CFU/ml, 24 hours [1, 29]: 7.75 log10 CFU/ml
Aerobic microflora CFU/ml, 24 hours [3, 25]: 6.88 log10 CFU/ml
Aerobic microflora CFU/ml, 48 hours [3, 25]: 7.56 log10 CFU/ml
Aerobic microflora CFU/ml, 72 hours [3, 25]: 7.69 log10 CFU/ml
Aerobic microflora CFU/ml, 24 hours [3, 26]: <4.00 log10 CFU/ml
Aerobic microflora CFU/ml, 48 hours [3, 26]: 4.88 log10 CFU/ml
Aerobic microflora CFU/ml, 72 hours [3, 26]: <4.00 log10 CFU/ml
Inhibitory effect on the prebiotic effect of MP9007, aerobic microflora (in words) [3, 27]: very substantial
Inhibition of the prebiotic effect of the MP9007 protein, aerobic microflora (in words) [3, 28]: completely inhibited
Aerobic microflora CFU/ml, 24 hours [3, 29]: 7.75 log10 CFU/ml
